Experimental data as given in patent US10369139B2, “Crystalline compound as semicarbazide-sensitive amine oxidase (SSAO) enzyme inhibitor” (BENEVOLENTAI CAMBRIDGE LIMITED, priority 2015, dated 2019).
Structures can show the parent of a compound that is named as a salt.

Tests used:
Assay type in all cases: physicochemical
[1] = Hygroscopicity on storage at controlled temperature/relative humidity (Table 2)
From the text: Crystalline mesylate salt was isolated and characterised using some or all of XRPD, ^1H NMR, DSC, TGA, GVS, IC, PLM, HSM, HPLC and KF (see Table 2).

[2] = Hygroscopicity during long term storage, assessed by Karl Fischer titration; conditions: double LDPE liners, desiccant pouch, heat-sealed foil bag, HDPE keg
Experimental: The water content of each sample was measured on a Mettler Toledo DL39 Coulometer using Hydranal Coulomat AG reagent and an argon purge. Weighed solid samples were introduced into the vessel on a platinum TGA pan which was connected to a subaseal to avoid water ingress. Approx 10 mg of sample was used per titration and duplicate determinations were made.
(§1) Crystalline (3S)-Tetrahydrofuran-3-yl (4S)-4-isopropyl-1,4,6,7-tetrahydro-5H-imidazo[4,5-c]pyridine-5-carboxylate mesylate was also assessed for stability and hygroscopicity when dispensed in 3 g aliquots in double LDPE liners, sealed with cable tie and placed, with a desiccant pouch into a foil bag, which was subsequently heat-sealed. The foil bag was then placed into an HDPE keg fitted with an HDPE lid. These conditions mirror typical GMP level storage conditions. Stability was assessed by HPLC and hygroscopicity was assessed by Karl Fisher (KF) titration.

[3] = Stability during long term storage, assessed by HPLC; conditions: double LDPE liners, desiccant pouch, heat-sealed foil bag, HDPE keg
Experimental: Purity analysis was performed on an Agilent HP1100 series system equipped with a diode array detector and using ChemStation software vB.02.01-SR1 using the method detailed below (Table 1).
as §1

[4] = after 6 months at 40° C./75% RH

Row | Hygroscopicity (time after which the sample deliquesced) ([1]; 40° C./75% RH) | Stability of the crystalline salt on storage (reduced hygroscopicity) ([1]; temperature of 40° C., relative humidity of 75%) | Water uptake (KF) [2, 4] | Water uptake (KF) ([2]; over 3 years at 25° C./60% RH) | Degradation (HPLC) [3, 4] | Degradation (HPLC) ([3]; over 3 years at 25° C./60% RH) | Hygroscopicity (time in which the sample deliquesced) ([1]; 25° C./60% RH) | SMILES
1 | 3 days | up to three days | 0.1% | no water uptake | 0.1% | 0.1% | – | CC(C)[C@H]1c2[nH]cnc2CCN1C(=O)O[C@H]1CCOC1 [Crystalline mesylate salt, (3S)-Tetrahydrofuran-3-yl (4S)-4-isopropyl-1,4,6,7-tetrahydro-5H-imidazo[4,5-c]pyridine-5-carboxylate, Methananesulfonic Acid Salt]
2 | – | – | – | – | – | – | 25° C./60% RH in <24 h | CC(C)[C@H]1c2[nH]cnc2CCN1C(=O)O[C@H]1CCOC1 [Free base, (3S)-Tetrahydrofuran-3-yl (4S)-4-isopropyl-1,4,6,7-tetrahydro-5H-imidazo[4,5-c]pyridine-5-carboxylate]
